Test results taken from US20210246115A1 (Bioimics AB, priority 2017, published 2021).
Values after ≈ are worked out from the molar mass of the structure shown. Counter-ions that a name gives are not always drawn. Like-named read-outs stand apart in the source and are kept apart here.

Tests used:
[1] = tested on: Staphylococcus aureus subsp. aureus (ATCC29213); test: MIC, broth microdilution (CLSI), Staphylococcus aureus ATCC29213; assay type: cell-based; conditions: Staphylococcus aureus
[2] = tested on: E. coli RNase P RNA, M1 RNA; test: Inhibition of bacterial RNase P activity, IC50 determination (cleavage of pATSerUG by M1 RNA); assay type: biochemical; conditions: NI: No inhibition
[3] = tested on: Escherichia coli (ATCC25922); test: MIC, broth microdilution (CLSI), Escherichia coli; conditions: Escherichia coli, ATCC25922, read-out: E. coli ATCC 25922 MIC, Table XIII
[4] = ATCC29213, read-out: S. aureus ATCC 29213 MIC, Table XIII
[5] = ATCC29213, Table XIII, read-out: S. aureus ATCC 29213 MIC

NCCCNC1CCCC(c2cn(C3CCCCC3)c3ccc(-c4cccc(OC(F)(F)F)c4)cc23)C1 (stereo not drawn) [Compound 404, N1-(3-(1-cyclohexyl-5-(3-(trifluoromethoxy)phenyl)-1H-indol-3-yl)cyclohexyl)propane-1,3-diamine hydrochloride salt]
MIC [1, 4]: 4 µg/mL | IC50 [2]: 4.8 µM | MIC [3]: 8 µg/mL

Cl.Cl.NCCCNCCC(c1cccc(Cl)c1)c1cn(C2CCCCC2)c2ccccc12 (stereo not drawn) [Compound 356, N1-(3-(3-chlorophenyl)-3-(1-cyclohexyl-1H-indol-3-yl)propyl) propane-1,3-diamine hydrochloride salt]
MIC [1, 5]: 4 µg/mL | IC50 [2]: 37 µM | MIC [3]: 4 µg/mL

CCCCCCCCn1cc(C(CCNCCCN)C2CCCCC2)c2ccccc21.Cl.Cl (stereo not drawn) [Compound 417, N1-(3-cyclohexyl-3-(1-octyl-1H-indol-3-yl)propyl)propane-1,3-diamine hydrochloride salt]
MIC [1, 5]: 2 µg/mL | IC50 [2]: 2.8 µM | MIC [3]: 4 µg/mL

CC(C)=CCC/C(C)=C/Cn1cc(C(CCNCCCN)C2CCCCC2)c2ccccc21 (stereo not drawn) [Compound 421, (E)-N1-(3-cyclohexyl-3-(1-(3,7-dimethylocta-2,6-dien-1-yl)-1H-indol-3-yl)propyl)propane-1,3-diamine]
MIC [1, 5]: 4 µg/mL (≈ 8.89 µM) | IC50 [2]: 8.3 µM | MIC [3]: 8 µg/mL (≈ 17.8 µM)

Cc1cccc(CC(CCNC2CCNCC2)c2cn(C3CCCCC3)c3ccccc23)c1 (stereo not drawn) [Compound 418, N-(3-(1-cyclohexyl-1H-indol-3-yl)-4-(m-tolyl)butyl)piperidin-4-amine hydrochloride salt]
MIC [1, 4]: 8 µg/mL | IC50 [2]: 17 µM | MIC [3]: 4 µg/mL

Cc1cccc(C(CCN[C@H]2CC[C@H](N)CC2)c2cn(C3CCCC3)c3ccccc23)c1.Cl.Cl (stereo partly drawn) [Compound 332, (1R,4R)-N1-(3-(1-cyclopentyl-1H-indol-3-yl)-3-(m-tolyl)propyl) cyclohexane-1,4-diamine hydrochloride salt]
MIC [1, 5]: 8 µg/mL | IC50 [2]: 39 µM | MIC [3]: 8 µg/mL

Cl.Cl.NCCCNCCC(c1cn(C2CCCCC2)c2ccc(Br)cc12)C1CCCCC1 (stereo not drawn) [Compound 429, N1-(3-(5-bromo-1-cyclohexyl-1H-indol-3-yl)-3-cyclohexylpropyl) propane-1,3-diamine hydrochloride salt]
MIC [1, 5]: 2 µg/mL | IC50 [2]: 11 µM | MIC [3]: 4 µg/mL

N#Cc1ccc2c(C(CCNC3CCC(N)CC3)c3cccc(OC(F)(F)F)c3)cn(C3CCCCC3)c2c1 [Compound 415, 3-(3-(((1S,4S)-4-aminocyclohexyl)amino)-1-(3-(trifluoromethoxy)phenyl)propyl)-1-cyclohexyl-1H-indole-6-carbonitrile hydrochloride salt]
MIC [1, 4]: 4 µg/mL | IC50 [2]: 16 µM | MIC [3]: 16 µg/mL

Cc1cccc(C(CCNCCCN)c2cn(CC3CCCCC3)c3ccc([N+](=O)[O-])cc23)c1 (stereo not drawn) [Compound 424, N1-(3-(1-cyclohexylmethyl)-5-nitro-1H-indol-3-yl)-3-(m-tolyl)propyl)propane-1,3-diamine hydrochloride salt]
MIC [1, 5]: 2 µg/mL | IC50 [2]: 8.5 µM | MIC [3]: 4 µg/mL

Cl.Cl.N[C@H]1CC[C@H](NCCCc2cn(C3CCCCC3)c3ccc(C4CCCCC4)cc23)CC1 [Compound 398, (1r,4r)-N1-(3-(1,5-dicyclohexyl-1H-indol-3-yl)propyl)cyclohexane-1,4-diamine hydrochloride salt]
MIC [1, 5]: 2 µg/mL | IC50 [2]: 9 µM | MIC [3]: 4 µg/mL

Cc1cccc(-c2ccc3c(c2)c(C2CCCC(NC4CCNCC4)C2)cn3C2CCCCC2)c1 (stereo not drawn) [Compound 396, N-(3-(1-cyclohexyl-5-(m-tolyl)-1H-indol-3-yl)cyclohexyl)piperidin-4-amine hydrochloride salt]
MIC [1, 4]: 2 µg/mL | IC50 [2]: 12 µM | MIC [3]: 4 µg/mL

Cl.Cl.NCCCNCCC(c1ccccc1)c1cn(C2CCCCC2)c2ccccc12 (stereo not drawn) [Compound 343, N1-(3-(1-cyclohexyl-1H-indol-3-yl)-3-phenylpropyl) propane-1,3-diamine hydrochloride salt]
MIC [1, 5]: 8 µg/mL | IC50 [2]: 64 µM | MIC [3]: 4 µg/mL

Cl.Cl.NCCCNCCC(c1cc(Cl)cc(Cl)c1)c1cn(C2CCCCC2)c2ccccc12 (stereo not drawn) [Compound 349, N1-(3-(1-cyclohexyl-1H-indol-3-yl)-3-(3,5-dichlorophenyl)propyl) propane-1,3-diamine hydrochloride salt]
MIC [1, 5]: 2 µg/mL | IC50 [2]: 16 µM | MIC [3]: 4 µg/mL

CCC(CC)C(CCNCCCN)c1cn(C2CCCCC2)c2ccccc12.Cl.Cl (stereo not drawn) [Compound 416, N1-(3-(1-cyclohexyl-1H-indol-3-yl)-4-ethylhexyl)propane-1,3-diamine hydrochloride salt]
MIC [1, 5]: 4 µg/mL | IC50 [2]: 26 µM | MIC [3]: 2 µg/mL

Cc1cccc(C(CCN[C@H]2CC[C@H](NC(N)=O)CC2)c2cn(C3CCCCC3)c3ccccc23)c1 (stereo partly drawn) [Compound 377, 1-((1R,4R)-4-((3-(1-cyclohexyl-1H-indol-3-yl)-3-(m-tolyl)propyl)amino)cyclohexyl) urea]
MIC [1, 5]: 16 µg/mL (≈ 32.9 µM) | IC50 [2]: 130 µM | MIC [3]: > 128 µg/mL

Cl.Cl.NCCCNCCC(c1cccc(F)c1)c1cn(C2CCCCC2)c2ccccc12 (stereo not drawn) [Compound 344, N1-(3-(1-cyclohexyl-1H-indol-3-yl)-3-(3-fluorophenyl)propyl) propane-1,3-diamine hydrochloride salt]
MIC [1, 5]: 8 µg/mL | IC50 [2]: 52 µM | MIC [3]: 4 µg/mL

Cc1ccccc1-c1ccc2c(c1)c(CCCNCCCN)cn2C1CCCCC1.Cl.Cl [Compound 362, N1-(3-(1-cyclohexyl-5-(o-tolyl)-1H-indol-3-yl)propyl)propane-1,3-diamine hydrochloride salt]
MIC [1, 5]: 4 µg/mL | IC50 [2]: 8.3 µM | MIC [3]: 4 µg/mL

Cc1cccc(C(CCNC2CCNCC2)c2cn(C3CC4CCC3C4)c3ccccc23)c1 (stereo not drawn) [Compound 323, hydrochloride salt]
MIC [1, 4]: 8 µg/mL | IC50 [2]: 42 µM | MIC [3]: 4 µg/mL

Cc1cccc(C(CCNCCCN)c2cn(C3CC4CCC3C4)c3ccccc23)c1.Cl.Cl (stereo not drawn) [Compound 341, N1-(3-(1-(bicyclo[2.2.1]heptan-2-yl)-1H-indol-3-yl)-3-(m-tolyl)propyl)propane-1,3-diamine hydrochloride salt]
MIC [1, 5]: 8 µg/mL | IC50 [2]: 32 µM | MIC [3]: 4 µg/mL

Cc1cccc(C(CCNCCCN)c2cn(C3CCCCC3)c3ccc(C#N)cc23)c1.Cl.Cl (stereo not drawn) [Compound 379, 3-(3-((3-aminopropyl)amino)-1-(m-tolyl)propyl)-1-cyclohexyl-1H-indole-5-carbonitrile hydrochloride salt]
MIC [1, 5]: 8 µg/mL | IC50 [2]: 34 µM | MIC [3]: 8 µg/mL

Cc1cccc(C(CCNCCCN)c2cn(C3CCCC3)c3ccccc23)c1.Cl.Cl (stereo not drawn) [Compound 334, N1-(3-(1-cyclopentyl-1H-indol-3-yl)-3-(m-tolyl)propyl)propane-1,3-diamine hydrochloride salt]
MIC [1, 5]: 8 µg/mL | IC50 [2]: 68 µM | MIC [3]: 8 µg/mL

CCCCCCCCn1cc(C(CCNCCCN)C(CC)CC)c2ccccc21.Cl.Cl (stereo not drawn) [Compound 426, N1-(4-ethyl-3-(1-octyl-1H-indol-3-yl)hexyl)propane-1,3-diamine hydrochloride salt]
MIC [1, 5]: 4 µg/mL | IC50 [2]: 8.3 µM | MIC [3]: 4 µg/mL

NCCCNC1CCCC(c2cn(C3CCCCC3)c3ccc(C4CCCCC4)cc23)C1 (stereo not drawn) [Compound 420, N1-(3-(1,5-dicyclohexyl-1H-indol-3-yl)cyclohexyl)propane-1,3-diamine]
MIC [1, 5]: 2 µg/mL (≈ 4.59 µM) | IC50 [2]: 8.4 µM | MIC [3]: 2 µg/mL (≈ 4.59 µM)

Cc1cccc(C(CCNC2CCNCC2)c2cn(C3CCCC3)c3ccccc23)c1.Cl.Cl (stereo not drawn) [Compound 333, N-(3-(1-cyclopentyl-1H-indol-3-yl)-3-(m-tolyl)propyl)piperidin-4-amine hydrochloride salt]
MIC [1, 5]: 16 µg/mL | IC50 [2]: 89 µM | MIC [3]: 8 µg/mL

N#Cc1ccc2c(c1)c(C(CCNC1CCNC1)C1CCCCC1)cn2C1CCCCC1 (stereo not drawn) [Compound 413, 1-cyclohexyl-3-(1-cyclohexyl-3-(pyrrolidin-3-ylamino)propyl)-1H-indole-5-carbonitrile hydrochloride salt]
MIC [1, 4]: 4 µg/mL | IC50 [2]: 20 µM | MIC [3]: 8 µg/mL

N#Cc1ccc2c(C(CCNC3CCNCC3)c3cccc(OC(F)(F)F)c3)cn(C3CCCCC3)c2c1 (stereo not drawn) [Compound 414, 1-cyclohexyl-3-(3-(piperidin-4-ylamino)-1-(3-(trifluoromethoxy)phenyl)propyl)-1H-indole-6-carbonitrile hydrochloride salt]
MIC [1, 4]: 4 µg/mL | IC50 [2]: 16 µM | MIC [3]: 8 µg/mL

CCCCCCCCn1cc(C(CCNCCCN)C2CCCCC2)c2cc(C#N)ccc21.Cl.Cl (stereo not drawn) [Compound 427, 3-(3-((3-aminopropyl)amino)-1-cyclohexylpropyl)-1-octyl-1H-indole-5-carbonitrile hydrochloride salt]
MIC [1, 5]: 2 µg/mL | IC50 [2]: 4.4 µM | MIC [3]: 4 µg/mL

Cc1ccccc1C(CCNCCCN)c1cn(C2CCCCC2)c2ccccc12.Cl.Cl (stereo not drawn) [Compound 345, N1-(3-(1-cyclohexyl-1H-indol-3-yl)-3-(o-tolyl)propyl)propane-1,3-diamine hydrochloride salt]
MIC [1, 5]: 8 µg/mL | IC50 [2]: 41 µM | MIC [3]: 4 µg/mL

Cc1cccc(C(CCN(CCCN)CCCN)c2cn(C3CCCCC3)c3ccccc23)c1 (stereo not drawn) [Compound 363, N1-(3-aminopropyl)-N1-(3-(1-cyclohexyl-1H-indol-3-yl)-3-(m-tolyl)propyl)propane-1,3-diamine hydrochloride salt]
MIC [1, 4]: 16 µg/mL | IC50 [2]: 12 µM | MIC [3]: 32 µg/mL

Cc1cccc(-c2ccc3c(c2)c(CCCNCCCN)cn3CC2CCCCC2)c1.Cl.Cl [Compound 375, N1-(3-(1-(cyclohexylmethyl)-5-(m-tolyl)-1H-indol-3-yl)propyl)propane-1,3-diamine hydrochloride salt]
MIC [1, 5]: 4 µg/mL | IC50 [2]: 4.7 µM | MIC [3]: 4 µg/mL
